Literature values, collected in patent US9375463B2, “Compositions and methods for improving sleep using a nutraceutical formulation” (Creative Medical Health Inc., priority 2013, dated 2016).

Legend:
elderly subjects = conditions: 500 mg daily for 8 weeks, 46 elderly subjects
[1] = test system: children most of whom were neurologically disabled; conditions: 2-5 mg before bedtime for 7-10 days, fifteen subjects
[2] = test system: healthy males with normal sleep patterns; conditions: 0.3 or 1.0 mg, orally
[3] = 3 mg
subjects = conditions: oral, 4 weeks, 9 subjects; by increasing sensitivity to light
infants = conditions: daily for 12 months

[Mg+2] [magnesium]
levels of serum cortisol (elderly subjects): reduced the levels of serum cortisol
subjective measures of sleep (elderly subjects): improved subjective measures of sleep

N-acetyl-5-hydroxytryptamine [melatonin]
sleep and moods [1]: improve sleep and moods
falling asleep faster than individuals given placebo (sleep onset latency) [2]: approximately 40 minutes
subjective sleep experiences (time to fall asleep, quality of sleep, awakenings) [3]: subjective improvements in sleep experiences

vitamin B12
circadian rhythm (subjects): advanced the circadian rhythm

zinc [zinc supplements]
night sleep duration (infants): increased night sleep duration
night waking (infants): less night waking
